Experimental findings from ChEMBL document CHEMBL4382242, “Novel racemosin B derivatives as new therapeutic agents for aggressive breast cancer” (Bioorg Med Chem, 2018) are described below.

For experiment [1], the system named is MDA-MB-231. The experiment is described as follows: Growth inhibition of human MDA-MB-231 cells after 72 hrs by MTT assay. The following applies: MDA-MB-231, 72 h. Format: functional, cell-based.
The next experiment concerns MCF7. As to the kind of experiment: Growth inhibition of human MCF7 cells after 72 hrs by MTT assay. Type of experiment: functional, cell-based. Particulars: MCF7, 72 h. On the technique in general: Tetrazolium assays rely on reduction of a dye to a coloured formazan, in cell work by metabolically active cells.
The test system of experiment [2] is MDA-MB-231. The experiment is described as follows: Induction of apoptosis in human MDA-MB-231 cells assessed as increase in Bax protein expression at 5 uM after 16 hrs by Western blot analysis. Type of experiment: functional, cell-based. On the technique in general: A western blot detects proteins with antibodies after separation by electrophoresis.
Experiment [3] relates to MDA-MB-231. The experiment is described as follows: Induction of apoptosis in human MDA-MB-231 cells assessed as live cells at 5 uM after 24 hrs by Annexin V-FITC/propidium iodide staining based flow cytometry (reference value: 90.8%). Type of experiment: functional. Background: A flow cytometer gives signals particle by particle.
The test system of experiment [4] is MDA-MB-231. The experiment is described as follows: Inhibition of autophagy in human MDA-MB-231 cells assessed as increase in p62 protein expression at 5 uM after 16 hrs by Western blot analysis. Type of experiment: functional, cell-based.
A short description of experiment [5]: Growth inhibition of human WM9 cells after 72 hrs by MTT assay. Format: functional. Particulars: WM9, 72 h.
Experiment [6] has as its system MDA-MB-231. The experiment is described as follows: Cell cycle arrest in human MDA-MB-231 cells assessed as accumulation at G2/M phase at 5 uM after 24 hrs by propidium iodide staining based flow cytometry (reference value: 18.5%). Type of experiment: functional.
For experiment [7], the system named is MDA-MB-231. As to the kind of experiment: Induction of apoptosis in human MDA-MB-231 cells assessed as early apoptotic cells at 5 uM after 24 hrs by Annexin V-FITC/propidium iodide staining based flow cytometry (reference value: 3.7%). Type of experiment: functional.
Experiment [8] deals with MDA-MB-231. As to the kind of experiment: Induction of apoptosis in human MDA-MB-231 cells assessed as late apoptotic cells at 5 uM after 24 hrs by Annexin V-FITC/propidium iodide staining based flow cytometry (reference value: 4.8%). Type of experiment: functional.
Experiment [9] has as its system MDA-MB-231. As to the kind of experiment: Induction of apoptosis in human MDA-MB-231 cells assessed as late apoptotic cells at 5 uM after 48 hrs by Annexin V-FITC/propidium iodide staining based flow cytometry (reference value: 6.5%). Format: functional.
In experiment [10] the test system is MDA-MB-231. The experiment is described as follows: Induction of morphological changes in human MDA-MB-231 cells assessed as large vacuole formation at 5 uM after 24 hrs. Type of experiment: functional, cell-based.
In experiment [11] the target is Serine/threonine-protein kinase mTOR (Homo sapiens) (UniProt P42345). As to the kind of experiment: Inhibition of mTOR phosphorylation in human MDA-MB-231 cells at 5 uM after 16 hrs by Western blot analysis. Type of experiment: cell-based.
The nature of experiment [12]: Growth inhibition of human WM35 cells after 72 hrs by MTT assay. Particulars: WM35, 72 h. Type of experiment: functional.
The test system of the next experiment is K562. As to the kind of experiment: Growth inhibition of human K562 cells after 72 hrs by MTT assay. Type of experiment: functional, cell-based. Particulars: K562, 72 h.
Another experiment has as its system 4T1. As to the kind of experiment: Growth inhibition of mouse 4T1 cells after 72 hrs by MTT assay. Format: functional, cell-based. The following applies: 4T1, 72 h.
Experiment [13] has as its system MDA-MB-231. As to the kind of experiment: Cell cycle arrest in human MDA-MB-231 cells assessed as accumulation at G2/M phase at 5 uM after 48 hrs by propidium iodide staining based flow cytometry (reference value: 17.79%). Format: functional.
Experiment [14] has as its system MDA-MB-231. The experiment is described as follows: Induction of apoptosis in human MDA-MB-231 cells assessed as early apoptotic cells at 5 uM after 48 hrs by Annexin V-FITC/propidium iodide staining based flow cytometry (reference value: 5.3%). Format: functional.
The subject of experiment [15] is MDA-MB-231. As to the kind of experiment: Cell cycle arrest in human MDA-MB-231 cells assessed as accumulation at S phase at 5 uM after 48 hrs by propidium iodide staining based flow cytometry (reference value: 31.71%). Type of experiment: functional.
For experiment [16], the system named is MDA-MB-231. The experiment is described as follows: Cell cycle arrest in human MDA-MB-231 cells assessed as accumulation at G1 phase at 5 uM after 24 hrs by propidium iodide staining based flow cytometry (reference value: 47.9%). Format: functional.
The subject of another experiment is HEL. As to the kind of experiment: Growth inhibition of HEL cells after 72 hrs by MTT assay. Particulars: Homo sapiens. Format: functional, cell-based.
Experiment [17] concerns MDA-MB-231. As to the kind of experiment: Cell cycle arrest in human MDA-MB-231 cells assessed as accumulation at G1 phase at 5 uM after 48 hrs by propidium iodide staining based flow cytometry (reference value: 3.19%). Format: functional.
Experiment [18] deals with MDA-MB-231. The experiment is described as follows: Induction of apoptosis in human MDA-MB-231 cells assessed as live cells at 5 uM after 48 hrs by Annexin V-FITC/propidium iodide staining based flow cytometry (reference value: 87.6%). Format: functional.
For experiment [19], the system named is MDA-MB-231. As to the kind of experiment: Growth inhibition of human MDA-MB-231 cells at 1 to 5 uM after 72 hrs by MTT assay. Type of experiment: functional, cell-based.
In experiment [20] the test system is MDA-MB-231. The experiment is described as follows: Induction of apoptosis in human MDA-MB-231 cells assessed as increase in Cyclin-B1 protein expression at 5 uM after 16 hrs by Western blot analysis. Type of experiment: functional, cell-based.
The subject of experiment [21] is MDA-MB-231. As to the kind of experiment: Inhibition of autophagy in human MDA-MB-231 cells assessed as LC3-2 accumulation at 5 uM after 16 hrs by DAPI staining based immunofluorescence assay. Format: functional, cell-based.
Experiment [22] has as its system MDA-MB-231. The experiment is described as follows: Cell cycle arrest in human MDA-MB-231 cells assessed as accumulation at S phase at 5 uM after 24 hrs by propidium iodide staining based flow cytometry (reference value: 29.76%). Type of experiment: functional.
Experiment [23] deals with MDA-MB-231. The experiment is described as follows: Induction of apoptosis in human MDA-MB-231 cells assessed as necrotic cells at 5 uM after 48 hrs by Annexin V-FITC/propidium iodide staining based flow cytometry (reference value: 0.7%). Type of experiment: functional.
For experiment [24], the system named is MDA-MB-231. The experiment is described as follows: Induction of apoptosis in human MDA-MB-231 cells assessed as decrease in Bcl2 protein expression at 5 uM after 16 hrs by Western blot analysis. Format: functional, cell-based.
For experiment [25], the system named is MDA-MB-231. The experiment is described as follows: Induction of apoptosis in human MDA-MB-231 cells assessed as necrotic cells at 5 uM after 24 hrs by Annexin V-FITC/propidium iodide staining based flow cytometry (reference value: 0.7%). Format: functional.

pIC50: −log10 of the molar value. Calls of active or inactive are those of the source. The rule behind the calls is not given here.

For `O=C(NCc1ccccn1)c1cc2c3ccccc3[nH]c2c2c1[nH]c1ccccc12`, the pIC50 in the experiment with MDA-MB-231 [1] was 5.10; in the experiment on MCF7 it was 4.64.
`CN(C)CCNC(=O)c1cc2c3ccccc3[nH]c2c2c1[nH]c1ccc(Br)cc12`: the outcome in the experiment on MDA-MB-231 [2], with MDA-MB-231 [20] and with MDA-MB-231 [24] was inactive. Moreover, the Activity is on record as 82.2% in the experiment with MDA-MB-231 [3]; 22.91% in the experiment on MDA-MB-231 [6]; 10.8% in the experiment on MDA-MB-231 [7]; 5% with MDA-MB-231 [8]; 5.5% in the experiment on MDA-MB-231 [9]; 29.98% with MDA-MB-231 [13]. Besides, the Activity is reported as 14.2% in the experiment with MDA-MB-231 [14]; 21.38% in the experiment on MDA-MB-231 [15]; 47.46% with MDA-MB-231 [16]; 48.65% in the experiment with MDA-MB-231 [17]; 70.8% with MDA-MB-231 [18]; 29.31% in the experiment with MDA-MB-231 [22]. The results for the Activity in the experiment on MDA-MB-231 [23] and in the experiment on MDA-MB-231 [25] were 9.6% and 2%, respectively. The inhibition entry (in the experiment with MDA-MB-231 [4]; in experiment [11]; in the experiment with MDA-MB-231 [21]) was “Active” throughout. Moreover, the negative-log IC50 (pIC50) in [5] was 5.61; in experiment [12], 5.42; in the experiment with K562, 5.81; in the experiment with 4T1 it was 5.56; with HEL it was 5.44; in the experiment with MDA-MB-231 [1] it was 5.97. In addition, the pIC50 in the experiment on MCF7 is 5.70. Also, the result with MDA-MB-231 [10] was Active. Besides, the “growth inhibition (GI)” value with MDA-MB-231 [19] was “Active”.
For the compound `O=C(NCCN1CCCCC1)c1cc2c3ccccc3[nH]c2c2c1[nH]c1ccccc12`, the pIC50 in the experiment with MDA-MB-231 [1] was 5.76; with MCF7 it was 5.49.
Take `O=C(NCCN1CCCC1)c1cc2c3ccccc3[nH]c2c2c1[nH]c1cc(Cl)ccc12`: the pIC50 in the experiment with MDA-MB-231 [1] was 5.24; in the experiment on MCF7, 5.08.
On to `CN(C)CCN(C)C(=O)c1cc2c3ccccc3[nH]c2c2c1[nH]c1ccccc12`, for which the pIC50 in the experiment on MDA-MB-231 [1] is 5.53; with MCF7, 5.20.
In the case of `O=C(NCCNCCO)c1cc2c3ccccc3[nH]c2c2c1[nH]c1ccccc12`, the figures for the pIC50 in the experiment with MDA-MB-231 [1] and in the experiment on MCF7 were 5.69 and 5.31, respectively.
For `CN1CCC(NC(=O)c2cc3c4ccccc4[nH]c3c3c2[nH]c2ccccc23)CC1`, in that order: 5.79 and 5.41.
For `COC(=O)c1cc2c3ccccc3[nH]c2c2c1[nH]c1cc(Cl)ccc12` the same measures were under 4.40 and under 4.40.
Take `CCN(CC)CCNC(=O)c1cc2c3ccccc3[nH]c2c2c1[nH]c1ccccc12`: the pIC50 in the experiment on MDA-MB-231 [1] was 5.77; in the experiment with MCF7, 5.62.
For `CN(C)c1ccccc1NC(=O)c1cc2c3ccccc3[nH]c2c2c1[nH]c1ccccc12` the same measures were 5.11 and 4.97.
For `COc1ccc2[nH]c3c(C(=O)NCCN4CCCC4)cc4c5ccccc5[nH]c4c3c2c1` the same measures were 5.55 and 5.25.
Turning to `CN1CCN(CCNC(=O)c2cc3c4ccccc4[nH]c3c3c2[nH]c2ccccc23)CC1`, the pIC50 with MDA-MB-231 [1] is 5.68; in the experiment on MCF7, 5.27.
`O=C(NCc1ccncc1)c1cc2c3ccccc3[nH]c2c2c1[nH]c1ccccc12`: the pIC50 with MDA-MB-231 [1] was 5.25; in the experiment with MCF7, 5.09.
In the case of `COc1ccc2[nH]c3c(C(=O)NCCN(C)C)cc4c5ccccc5[nH]c4c3c2c1`, the pIC50 with MDA-MB-231 [1] is 5.56; in the experiment with MCF7, 5.29.
On to `COC(=O)c1cc2c3ccccc3[nH]c2c2c1[nH]c1ccc(OC)cc12`, for which the pIC50 with MDA-MB-231 [1] and in the experiment with MCF7 was under 4.40 each time.

Usually pIC50 stands for the IC50 on a negative log10 scale, so that one unit is a factor of ten. Low values mean a high IC50, high ones a low IC50.
